# From patent publication US6809112B2, “Method of treating sexual disturbances” (priority 1999, dated 2004)
# How the values were obtained:
# [1] = tested on: patient with Male Erectile Disorder; assay: Treatment of Male Erectile Disorder (Examples C, K); format: in vivo, human; details: 3 mg/dose 0.5 hr before sexual activity; examined after one month; patient report
# Text: A 75 kg, patient has been married for 20 years. They present complaining that for the past six months they have had difficulty maintaining an erection until completion of sexual intercourse. They develop an adequate erection at the beginning of sexual activity but detumescence occurs when they attempt penetration. Their spouse is their only current sexual partner. They report that their spouse is patient and understanding of their problem but that they are embarrassed, feels that they are a failure, and is growing progressively more angry and sad about their inability to maintain an erection. They masturbate approximately twice each month. During masturbation, they are usually able to maintain an erection until they ejaculate. […] The only remarkable findings were a supine diastolic blood pressure 94 mm mercury and a total plasma cholesterol level of 230 mg/dl. They were instructed to follow the American Heart Association dietary recommendations and to reduce their body weight by 5 kg. They currently take no prescription drugs. […] The patient is diagnosed as having Male Erectile Disorder that is acquired and situational. The etiology is most likely due to psychological factors, although combined factors, e.g., mild hypertension or atherosclerosis, may contribute (Diagnostic and Statistical Manual of Mental Disorders, Fourth Edition, 1994). (5R)-(methylamino)-5,6-dihydro-4H-imidazo[4,5,1-ij]quinolin-2(1H)-one (Z)-2-butenedioate (1:1) is prescribed at 3 mg/dose to be taken 0.5 hr before the patient intends to engage in sexual activity. The patient is instructed that they may use the drug on a daily basis, if this is the intended frequency of sexual activity. The patient is examined after one month. They report that they use the drug prior to intercourse. […] The patient is instructed to continue using the drug.
# [2] = tested on: patient with erectile dysfunction and hypoactive sexual desire disorder; assay: Treatment of patient with erectile dysfunction and Hypoactive Sexual Desire Disorder, combination with sildenafil (Examples H, P); format: in vivo, human; details: 3 mg/dose in combination with sildenafil (VIAGRA Tablets) 50 mg/dose, orally about 0.5 hr before sexual activity, 2-3 times per week; after one month
# Text: A 70 kg patient is apparently in good health. They present complaining of a loss of sexual desire and frequent erectile dysfunction since taking an executive position in their company, six weeks previously. They report that they work long hours and feels a high degree of pressure associated with their job. They are frustrated and angry that when they take time off from work they are unable to have an intimate relationship with their spouse. They report that although they are periodically interested in initiating sexual relations, on most occasions they are unable to maintain a high level of interest sufficiently long to initiate or to adequately respond to their spouse's initiating sexual activity. […] They develop a semi-rigid erection at the beginning of sexual activity but detumescence occurs when they attempt penetration. They report that they have few erotic fantasies. They have not masturbated for the past several months. They attribute this to a lack of motivation and interest. […] (5R)-(methylamino)-5,6-dihydro-4H-imidazo[4,5,1-ij]quinolin-2(1H)-one (Z)-2-butenedioate (1:1), 3 mg/dose, and sildenafil (VIAGRA Tablets), 50 mg/dose, are both prescribed. Each is to be taken orally about 0.5 hr before the patient intends to engage in sexual activity. The patient is instructed that they may use the drug combination on a daily basis, if this is the intended frequency of sexual activity. The patient is examined after one month. They report that they take the drug combination 2-3 times per week. […] The patient is advised to continue taking the (5R)-(methylamino)-5,6-dihydro-4H-imidazo[4,5,1-ij]quinolin-2(1H)-one (Z)-2-butenedioate (1:1) for another six months as they adapt to the situational stress associated with their new job. After this time they are advised to stop taking the drug for a period of two weeks to determine whether their sexual motivation and desire have returned to the level they enjoyed prior to the change in jobs.
# [3] = tested on: male and female Giant Pandas; assay: Mating of animals of commercial value (Examples F, N); format: in vivo, Giant Panda; details: 0.05 mg of free base equivalents per kilogram of body weight in diet, one occasion; for induction of mating (treatment effect): one hour after ingesting
# Text: An adult male Giant Panda on temporary loan from a foreign zoo is desired to have breed to an adult female Giant Panda which is normally resident at the zoo. Because of the commercial value of a potential off-spring it is desirable that the animals mate during the time the adult male is on loan. […] As an alternative to anesthetizing the animals for a facilitated transfer of semen between the animals, the male and female Giant Pandas have (5R)-(methylamino)-5,6-dihydro-4H-imidazo[4,5,1-ij]quinolin-2(1H)-one (Z)-2-butenedioate (II) added to their diet on one occasion. The concentration of drug in the diet is calculated to deliver 0.05 mg of free base equivalents of (5R)-(methylamino)-5,6-dihydro-4H-imidazo[4,5,1-ij]quinolin-2(1H)-one (Z)-2-butenedioate (1:1) per kilogram of body weight.
# [4] = tested on: patient with idiopathic epilepsy and hypogonadism, secondary to chronic carbamazepine treatment; assay: Treatment of reduced sexual function in a person with idiopathic epilepsy (Examples G, O); format: in vivo, human; details: 3 mg/dose 0.5 hr before sexual activity, 2-3 times per week; carbamazepine 500 mg/day; examined after one month
# Procedure: A 75 kg patient has idiopathic epilepsy. They first presented with primary generalized seizures and was diagnosed with idiopathic epilepsy. They have been treated with carbamazepine. Currently they receive 500 mg/day of the drug. They have had two tonic-clonic seizures during the preceding year. The patient complains of diminished sexual interest in their spouse of 8 years. On those occasions when they attempt sexual intercourse, they are able to maintain an erection sufficient for intercourse one-third of the time. […] They report that they rarely have sexual fantasies and rarely masturbates. […] They currently take no prescription drugs other than carbamazepine. […] Plasma testosterone and sex hormone binding globulin assays are performed. The plasma testosterone level is 25 nM, which is considered normal. The plasma sex hormone binding globulin level is 55 nM, which is considered elevated compared to the normal range. The patient is diagnosed with hypogonadism, secondary to chronic carbamazepine treatment (Epilepsia 36: 366-370, 1995). (5R)-(methylamino)-5,6-dihydro-4H-imidazo[4,5,1-ij]quinolin-2(1H)-one (Z)-2-butenedioate (1:1) is prescribed at 3 mg/dose to be taken 0.5 hr before the patient intends to engage in sexual activity. The patient is instructed that they may use the drug on a daily basis, if this is the intended frequency of sexual activity. The patient is examined after one month. They report that they take the drug 2-3 times per week. […] The patient is instructed to continue with the treatment.
Compound,treatment effect (quality of sexual relationship) [1],treatment effect (sexual relationship) [2],melting point,induction of mating (treatment effect) [3],treatment effect (sexual relationship) [4],ejaculation [1],maintenance of erection [1],maintenance of erection [2],sexual fantasies [2],sexual motivation [2],pregnancy and birth from the mating [3],sexual interest and initiation of sexual activity [4]
"CN[C@@H]1Cc2cccc3[nH]c(=S)n(c23)C1 [(5R)-5-(Methylamino)-5,6-dihydro-4H-imidazo[4,5,1-ij]quinoline-2(1H)-thione]",same positive treatment effect,same positive treatment effect,210 to 213 °C,same positive treatment effect,same positive treatment effect,,,,,,,
"CN[C@@H]1Cc2cccc3[nH]c(=O)n(c23)C1.O=C(O)/C=C\C(=O)O [(5R)-(methylamino)-5,6-dihydro-4H-imidazo[4,5,1-ij]quinolin-2(1H)-one (Z)-2-butenedioate (1:1)]",markedly improved,enjoys an improved sexual relationship with their partner,,the animals engage in sexual intercourse,enjoys a normal sexual relationship,usually experiences intra-vaginal ejaculation,maintains an erection for a satisfactory period after vaginal penetration in almost every attempt at intercourse,no difficulty maintaining an erection to completion of sexual intercourse,readily has sexual fantasies that are sustained during sexual intercourse,feels motivated to initiate sexual activity,A pregnancy and subsequent birth of an off-spring results,feels more interest in sex and usually initiates sexual activity with their spouse
